Consider 1 compound from US6143910A, “Methods for preparation and use of 1α, 24(S) -dihydroxy vitamin D2” (priority 1998, dated 2000).

In one data set the target is T1, vitamin D receptor (VDR) (Homo sapiens, UniProt P11473).
T1 sequence (P11473 1-427): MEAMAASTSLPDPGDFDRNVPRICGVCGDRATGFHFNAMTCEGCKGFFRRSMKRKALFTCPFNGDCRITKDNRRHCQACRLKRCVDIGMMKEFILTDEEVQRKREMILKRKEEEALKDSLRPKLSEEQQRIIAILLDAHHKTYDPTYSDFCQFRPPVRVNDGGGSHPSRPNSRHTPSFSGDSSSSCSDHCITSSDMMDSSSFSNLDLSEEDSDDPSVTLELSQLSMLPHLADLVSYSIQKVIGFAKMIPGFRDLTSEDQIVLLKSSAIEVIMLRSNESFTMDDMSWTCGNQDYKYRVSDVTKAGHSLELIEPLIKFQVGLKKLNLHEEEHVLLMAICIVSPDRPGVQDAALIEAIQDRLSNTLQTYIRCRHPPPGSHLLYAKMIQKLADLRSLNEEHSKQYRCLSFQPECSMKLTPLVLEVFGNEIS
The experiment in a line: Vitamin D-dependent transcriptional activation, growth hormone production in co-transfected COS-1 cells. Format: cell-based. Here is the method: The biological activity in vitro of chemically synthesized 1α,24(S)-(OH)2 D2 and 1α,24(R)-(OH)2 D2 was measured using a vitamin D-dependent transcriptional activation model system in which a vitamin D receptor (VDR)-expressing plasmid pSG5-hVDR1/3and a plasmid p(CT4)^4 TKGH containing a Growth Hormone (GH)-gene, under the control of a vitamin D-responsive element (VDRE) were co-transfected into Green monkey kidney, COS-1 cells. DNA's for these two vectors were supplied by Dr. Mark Haussler, Department of Biochemistry, University of Arizona, Tucson, Ariz.
Tranfected cells were incubated with vitamin D metabolites and growth hormone production was measured.

Data set [1] is described as follows: Preventive treatment of bone mass loss in postmenopausal osteoporotic women. Format: in vivo, human. Conditions: at or above 1.0 μg/day, 24 to 36 months. The protocol:
A clinical study is conducted with postmenopausal osteoporotic out-patientshaving ages between 55 and 75 years. The study involves up to 120 patients randomly divided into three treatment groups and continues for 24 to 36 months. Two of the treatment groups receive constant dosages of 1α,24(S)-dihydroxy vitamin D2 (u.i.d.; two different dose levels at or above 1.0 μg/day) and the other group receives a matching placebo. All patients maintain a normal intake of dietary calcium (500 to 800 mg/day) and refrain from using calcium supplements. Efficacy is evaluated by pre- and post-treatment comparisons of the patient groups with regard to (a) total body calcium retention, and (b) radial and spinal bone mineral density as determined by dual-photon absorptiometry (DPA) or dual-energy x-ray absorptiometry (DEXA). Safety is evaluated by comparisons of urinary hydroxyproline excretion, serum and urine calcium levels, creatinine. clearance, blood urea nitrogen, and other routine determinations.

Data set [2] is described as follows: Hypocalcemia and metabolic bone disease in chronic hemodialysis patients. Format: in vivo, human. Conditions: greater than 3.0 μg/day, twelve months. Here is the method:
A twelve-month, double-blind, placebo-controlled clinical trial is conducted with thirty men and women with renal disease who are undergoing chronic hemodialysis. […] Efficacy is evaluated by pre- and post-treatment comparisons of the two patient groups with regard to (a) direct measurements of intestinal calcium absorption, (b) total body calcium retention, (c) radial and spinal bone mineral density, or (d) determinations of serum calcium. Safety is evaluated by regular monitoring of serum calcium.

The nature of data set [3]: Dermatological testing, topical treatment of dermatitis. Format: in vivo, human. Conditions: ointment 10 μg per gram, twice daily, four to six weeks. The protocol: Compositions containing 1α,24(S)-dihydroxy vitamin D2 are evaluated for therapeutic efficacy of the composition in the topical treatment of dermatitis (contact and ectopic). The composition evaluated is an ointment containing 10 μg of 1α,24-dihydroxy vitamin D2 per gram of ointment in a petrolatum-almond oil base. […] The patients are treated in an out-patient clinic. They are instructed to use the preparation two times a day.
The ointment is as far as possible applied to a single lesion, or to an area of the disease. The ointment and its container are weighed before the treatment starts and returned with any unused contents for reweighing at the end of the treatment.
The area of the lesion treated is estimated and recorded, and the lesion is photographed as required, together with suitable "control" lesions. The latter are preferably lesions of similar size and stage of development, either in the vicinity of the treated lesion or symmetrically contralateral. Relevant details of the photographic procedure are recorded so as to be reproduced when the lesions are next photographed (distance, aperture, angle, background, etc.). The ointment is applied twice daily and preferably left uncovered. The "control" lesions are left untreated, but if this is not possible, the treatment used on them is noted. […]

The next data set has as its system Human keratinocytes. The experiment in a line: Epidermal cell differentiation and proliferation testing. Type of data set: cell-based. Conditions: 0.05 to 5 μg/ml. The protocol:
Human keratinocytes are cultured according to known modifications of the system originally described by Rheinwald and Green (Cell, vol. 6, p. 331 (1975)). The 1α,24(S)-dihydroxy vitamin D2, dissolved in ethanol, is added to cells to yield a variety of concentrations between 0.05 and 5 μg/ml with the ethanol concentration not to exceed 0.5% v/v. Control cultures are supplemented with ethanol at a final concentration of 0.5% v/v.
Differentiation and proliferation of epidermal cells in culture is examined by:
1. quantitation of cornified envelopes;
2. quantitation of cell density of cells attached to disks;
3. monitoring transglutaminase activity; or
4. monitoring DNA synthesis by incorporation of ^3 H-thymidine.

In a further data set the test system is HL-60 promyelocytes. Kind of data set: HL-60 cell differentiation assay. Type of data set: cell-based. Particulars: dose-response study. Here is the method:
A dose-response study is conducted with 1α,24(S)-(OH)2 D2 in the HL-60 cell differentiation assay as described by DeLuca and Ostrom (DeLuca, H. F. and Ostrem, V. K., Prog. Clin. Biol. Res., vol. 259, pp. 41-55 (1988)). In this study, 1α,25-(OH)2 D3 is used as a positive control and appropriate solvents are used as negative controls. The following variables are evaluated: nonspecific acid esterase activity, nitroblue tetrazolium (NBT) reduction, and thymidine incorporation.

For data set [4], the system named is BCA-1 or ZR-75-1 (breast) and COL-1 (colon). Kind of data set: Antiproliferative activity in human cancer cell lines, thymidine incorporation. Format: cell-based. Particulars: dose-response studies. Here is the method: Dose-response studies are conducted with 1α,24(S)-(OH)2 D2 in a battery of human cancer cell lines. These cell lines include, but are not limited to, the following: BCA-1 or ZR-75-1 (breast) and COL-1 (colon), as described by Shieh, H. L. et al. Chem. Biol. Interact., vol. 81, pp. 35-55 (1982). In this study, appropriate solvents are used as negative controls.
On the technique in general: Uptake of a labelled nucleoside into DNA is a usual measure of proliferation.

With `C=C1/C(=C\C=C2/CCC[C@]3(C)[C@@H]([C@H](C)/C=C/[C@@](C)(O)C(C)C)CC[C@@H]23)C[C@@H](O)C[C@@H]1O` [1α,24(S)-(OH)2 D2, 1α,24(S)-dihydroxy Vitamin D2], at vitamin D receptor (VDR), the “Activity in the transcriptional activation system compared with 1α,24(R)-(OH)2 D2” value was “significantly more activity”. In addition, in data set [1], the “Incidence of hypercalcemia or hypercalciuria” value was “insignificant incidence”; the “Total body calcium, radial and spinal bone densities versus placebo” value is recorded as “significantly higher”. For the same compound, in data set [2], the Incidence of hypercalcemia entry is “insignificant incidence of hypercalcemia”; the “Radial and spinal bone densities” value was “stable radial and spinal bone densities relative to baseline values”; the Serum calcium levels entry is “normalized serum calcium levels”; the Total body calcium result is on record as “stable values for total body calcium”. Also, in data set [3], the Incidence of hypercalcemia result is recorded as “insignificant incidence of hypercalcemia” and the “Lesion severity scores (erythema, scaling, thickness, rated 0 to 3)” value is on record as “lower scores than the control lesions”. In the data set on Human keratinocytes, the “Cell density of attached cells versus control cultures” value was “fewer attached cells”, the “Cornified envelopes versus control cultures” value is given as “more cornified envelopes”, the “DNA synthesis (3H-thymidine incorporation) versus control cultures” value is given as “lower DNA synthesis” and the “Transglutaminase activity versus control cultures” value is “higher transglutaminase activity”. Also, the “Promotion of differentiation of HL-60 promyelocytes to monocytes” value in the data set with HL-60 promyelocytes is “potent activity”. The “Antiproliferative activity, inhibition of thymidine incorporation” value in data set [4] is listed as “potent (and reversible) antiproliferative activity”.
